Laboratory results published in patent publication US20180153830A1, “SELECTIVE INHIBITORS OF UNDIFFERENTIATED CELLS” (Yissum Research Development Company of the Hebrew …, priority 2012, published 2018).
Like-named read-outs stand apart in the source and are kept apart here.

Key:
Format in all cases: cell-based
[1] = tested on: CSES2 human embryonic stem cells; assay: CellTiter-Glo luminescent cell viability screen, CSES2; conditions: for inhibition at 20 µM: pluripotent stem cells
Experimental: 5,000 CSES2 cells were plated in 50 μl per well of mTeSR1 medium into black 384-well clear-bottom plates (Falcon BD) pre-coated with Matrigel™ using WellMate cell dispenser (Matrix, Hudson, N.H.). 24 hours after plating, medium was replaced with 25 μl of fresh medium and 25 μl of 40 μM compound medium solutions in 1% DMSO from the intermediate compound dilution plates. The plates were incubated at 37° C., in a 5% CO2 atmosphere, for the entire duration of the screen, apart from the time required for liquid handling. […] 50 μl of CellTiter-Glo® reagent was added to each well of the assay plates and fully mixed. After incubation at room temperature for 15 minutes, 25 μl of liquid was transferred from each well into a white opaque-bottom 384-well plate (PerkinElmer), and luminescence was measured using an EnVision® plate reader (PerkinElmer). 16 neutral control wells (0.5% DMSO) and 8 positive control wells (5 μM amsacrine hydrochloride were used to normalize the compound effect. All liquid transfer steps were handled with a Biomek® FXP Laboratory Automation Workstation (Beckman Coulter, Fullerton, Calif.) and Muitidrop Combi liquid dispenser (Thermo Fisher, Waltham, Mass.). An Assay Analyzer (Genedata, Basel, Switzerland) was used for data pattern correction and calculation. The Spotfire software (Spotfire, Somerville, Mass.) was used for data illustration.
(§1) The compounds identified as hits from the primary screen were retested at a concentration of 20 μM against three pluripotent stem cell lines (CSES2, H9 and CSES2-SO2/3) for confirmation screens.
(§2) 696 confirmed hits from the confirmation screen were tested for profiling in a panel of 13 different cell types, using the same screening protocol described above (except in the case of embryonic stem cell-derived neural stem cells (NSCs) and mesenchymal stem cells (MSCs), for which the protocol is described below). As discussed below, compounds were tested either in dose-dependent multiple concentration manner or in single concentration manner. CSES2 and CSES2-SO2/3 cell lines and the early endodermal progenitors derived from this cell line (CSES2-SO2/3-differentiated) were screened at 8 concentrations ranging from 50 μM to 23 nM with 1:3 serial dilution steps. BJ-iPS28 cell line and the BJ fibroblasts from which it was derived were screened at 6 concentrations ranging from 50 μM to 200 nM with 1:3 serial dilution steps. Cardiomyocytes were screened in one concentration of 20 μM. HeLa and NTERA-2 cell lines were screened in duplicates of 20 μM. Kelly and Huh-7 were screened in triplicates of 20 μM. Hepatocytes were screened in duplicates of 20 μM in the original 96-well plates in which the cells arrived (40,000 cells per well, in 160 μl medium, the volumes of all reagents involved were adjusted accordingly). MSCs and NSCs were screened in duplicates of 12.5 μM.
(§3) The raw intensity data for each well were background-corrected by subtraction of the median intensities across all positive control wells on the same plate, and used to calculate the inhibitory effect of each compound per cell line. A Genedata Assay Analyzer and Condoseo were used for data pattern correction, calculation and IC50 curve fitting. A Z′ factor was determined for each plate.

[2] = tested on: CSES2-SO2/3 embryonic stem cells; assay: CellTiter-Glo luminescent cell viability screen, CSES2-SO2/3; conditions: Homo sapiens; for EC50: 24 h; for inhibition at 20 µM: pluripotent stem cells
Experimental: 5,000 CSES2 cells were plated in 50 μl per well of mTeSR1 medium into black 384-well clear-bottom plates (Falcon BD) pre-coated with Matrigel™ using WellMate cell dispenser (Matrix, Hudson, N.H.). 24 hours after plating, medium was replaced with 25 μl of fresh medium and 25 μl of 40 μM compound medium solutions in 1% DMSO from the intermediate compound dilution plates. The plates were incubated at 37° C., in a 5% CO2 atmosphere, for the entire duration of the screen, apart from the time required for liquid handling. Cell viability was determined 24 hours after compound treatment using CellTiter-Glo® luminescent cell viability assay kits. 50 μl of CellTiter-Glo® reagent was added to each well of the assay plates and fully mixed. After incubation at room temperature for 15 minutes, 25 μl of liquid was transferred from each well into a white opaque-bottom 384-well plate (PerkinElmer), and luminescence was measured using an EnVision® plate reader (PerkinElmer). 16 neutral control wells (0.5% DMSO) and 8 positive control wells (5 μM amsacrine hydrochloride were used to normalize the compound effect. All liquid transfer steps were handled with a Biomek® FXP Laboratory Automation Workstation (Beckman Coulter, Fullerton, Calif.) and Muitidrop Combi liquid dispenser (Thermo Fisher, Waltham, Mass.). An Assay Analyzer (Genedata, Basel, Switzerland) was used for data pattern correction and calculation. The Spotfire software (Spotfire, Somerville, Mass.) was used for data illustration.
as §1, §2, §3

[3] = tested on: ES-derived neural stem cells; assay: CellTiter-Glo counter-screen, neural stem cells; conditions: Homo sapiens, Neural stem cell
[4] = 24 h, read-out: EC50 CSES2 24 hours
[5] = 48 h, read-out: EC50 CSES2 48 hours

| Structure (SMILES) | EC50 [1, 4] | EC50 [1, 5] | inhibition at 20 µM [1] | EC50 [2] | inhibition at 20 µM [2] | inhibition at 12.5 µM [3] |
| --- | --- | --- | --- | --- | --- | --- |
| O=C(NNc1ccccc1)c1ccncc1 [PluriSIn #1, isonicotinic acid N′-phenylhydrazide] | 1.54 µM | 1.99 µM | 92.1% | 3.91 µM | 90.8% | 18.2% |
| O=C(Nc1ccccc1)n1cc(F)c(=O)[nH]c1=O [PluriSIn #2] | 2.03 µM | 2.63 µM | 84% | 12.4 µM | 54.3% | 53.6% |
| Nc1cc(N)cc(COc2ccc(-c3ccccc3)cc2)c1 [PluriSIn #3] | 2.98 µM | 1.32 µM | 98% | 2.79 µM | 97.4% | 90.4% |
| O=C(NCCc1ccc(O)cc1)c1ccc(N2CCCCC2)cc1 [PluriSIn #4] | 1.11 µM | 0.594 µM | 84.7% | 4.71 µM | 74.5% | 15.5% |
| O=S(=O)(NNc1ccccc1)c1ccc2ccccc2c1 [PluriSIn #5] | 3.06 µM | 1.27 µM | 88.2% | 3.2 µM | 92.3% | 60.9% |
| Cc1ccc(NNC(=O)C(O)(c2ccccc2)c2cccs2)cc1 (stereo not drawn) [PluriSIn #6, 2-hydroxy-2-(thiophen-2-yl)-2-phenylacetic acid 4-methyl-N′-phenylhydrazide] | 2.55 µM | 1.92 µM | 94.8% | 3.75 µM | 93.2% | 16.5% |
| CC(=O)Oc1ccc(/C=C/c2ccc3c(c2)CCN3C)cc1 [PluriSIn #7] | 1.98 µM | 0.749 µM | 104% | 2.74 µM | 95.4% | 92.8% |
| Cc1oc2ccccc2c1/C=N/Nc1ccccc1 [PluriSIn #8] | 2.31 µM | 2.39 µM | 98.6% | 3.69 µM | 92.7% | 15% |
| C/C(=N\O)NNc1ccc(Cl)cc1 [PluriSIn #9] | 7.96 µM | 2.16 µM | 102% | 4.61 µM | 89.2% | 28.9% |
| CCCCCC(=O)NNc1ccc(Cl)cc1 [PluriSIn #10] | 1.67 µM | 2.05 µM | 95% | 2.49 µM | 95.2% | 23.7% |
| CCOC(=O)CN1CC(=O)/C(=C\NNc2ccccc2)C1=O [PluriSIn #11] | 3.83 µM | 2.58 µM | 98.8% | 3.62 µM | 92.5% | 17.2% |
| CCN(CC)C(=O)C(=O)c1c(-c2ccccc2)[nH]c2c1sc1ccccc12 [PluriSIn #12] | 6.85 µM | 5.1 µM | 93% | 6.04 µM | 92.9% | 9.9% |
| O=C1C=CC=C1/C=C/C(=N\Nc1ccccc1)c1ccccc1 [PluriSIn #13] | 1.54 µM | 1.91 µM | 101% | 3.45 µM | 94.6% | 29.7% |
| O=C(NN(C(=O)c1ccccc1)c1ccccc1)c1ccc(Cl)cc1 [PluriSIn #14] | 2.03 µM | 2.91 µM | 90.1% | 5.51 µM | 90.1% | 18.4% |
| C(=N\C1CCC(CC2CCCCC2)CC1)/OC1CCOC1 (stereo not drawn) [PluriSIn #15] | 2.98 µM | 3.27 µM | 77.6% | 10 µM | 72.2% | 70.3% |
